Assay results published in BindingDB's records for doi:10.1016/j.bmc.2015.07.027 (Ocean University of China, 2015).
pIC50: −log10 of the molar value.

Assay: Modulation of P-gp (unknown origin) transfected in human MDA435/LCC6MDR cells assessed as paclitaxel IC50 for cell growth inhibition at 1 uM after 5 days by MTS assay

| SMILES | pIC50 |
| --- | --- |
| COc1ccc(C2=C(c3ccc(OC)c(OC)c3)C(=O)N(C(=O)N3CCN(CC(=O)c4ccc(S(C)(=O)=O)cc4)CC3)C2=O)cc1OC | 6.87 |
| COc1ccc(C2=C(c3ccc(OC)c(OC)c3)C(=O)N(C(=O)N3CCN(CC(=O)c4ccc(OCc5ccccc5)c(OC)c4)CC3)C2=O)cc1OC | 7.59 |
| CCCCC1OC(=O)c2cc(NC(=O)N3C(=O)C(c4ccc(OC)c(OC)c4)=C(c4ccc(OC)c(OC)c4)C3=O)ccc21 (centres undefined) | 7.24 |
| COc1ccc(C2=C(c3ccc(OC)c(OC)c3)C(=O)N(C(=O)Nc3ccc4c(c3)C(=O)OC4)C2=O)cc1OC | 6.90 |
